Target: T1, recombinant human liver glycogen phosphorylase (HLGPa) (Homo sapiens, UniProt P06737)
T1 construct: made in house; host or cells: Sf9 insect cells (unpurified cell lysate used as enzyme solution)
T1 sequence (P06737 1-847): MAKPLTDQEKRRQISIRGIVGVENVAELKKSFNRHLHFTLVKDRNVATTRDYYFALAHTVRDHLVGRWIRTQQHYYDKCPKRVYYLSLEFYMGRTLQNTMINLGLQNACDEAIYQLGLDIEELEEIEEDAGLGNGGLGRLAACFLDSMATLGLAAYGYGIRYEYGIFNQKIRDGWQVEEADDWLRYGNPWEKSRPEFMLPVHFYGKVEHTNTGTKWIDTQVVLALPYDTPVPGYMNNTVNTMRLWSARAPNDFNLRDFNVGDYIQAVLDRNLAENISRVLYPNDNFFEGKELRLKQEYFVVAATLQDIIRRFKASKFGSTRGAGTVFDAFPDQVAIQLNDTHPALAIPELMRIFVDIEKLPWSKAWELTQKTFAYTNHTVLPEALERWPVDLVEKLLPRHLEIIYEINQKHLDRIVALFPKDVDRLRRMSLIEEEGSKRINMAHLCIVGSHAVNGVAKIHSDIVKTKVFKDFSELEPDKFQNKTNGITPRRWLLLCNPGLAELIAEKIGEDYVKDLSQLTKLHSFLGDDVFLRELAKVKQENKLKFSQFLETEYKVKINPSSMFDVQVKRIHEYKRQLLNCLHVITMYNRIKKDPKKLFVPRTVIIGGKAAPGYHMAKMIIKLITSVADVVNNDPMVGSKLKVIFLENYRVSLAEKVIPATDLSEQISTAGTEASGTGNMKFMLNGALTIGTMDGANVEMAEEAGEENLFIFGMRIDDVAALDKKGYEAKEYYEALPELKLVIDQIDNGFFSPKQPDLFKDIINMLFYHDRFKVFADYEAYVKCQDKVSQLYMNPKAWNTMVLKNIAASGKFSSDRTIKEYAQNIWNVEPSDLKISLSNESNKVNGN
Test: Measurement of liver glycogen phosphorylase activity (enzyme inhibitory activity against HLGPa)
Format: biochemical
Settings: Sf9 cell lysate expressing recombinant enzyme; reverse reaction (glycogen synthesis from G1-P), phosphate by malachite green, 60 min room temperature
Protocol: Measurement Method of Liver Glycogen Phosphorylase Activity
The measurement of the glycogen phosphorylase activity was performed by measuring the concentration of phosphoric acic produced by a reverse reaction, that is, a reaction wherein the glycogen phosphorylase synthesizes glycogen from G1-P. A cell lysate of Sf9 cells that forcibly expressed recombinant human liver glycogen phosphorylase was diluted to a protein amount of 80 μg/mL with 1 mM imidazole-hydrochloric acid buffer (pH 7.0, containing 0.2 mM PMSF, 250 mM NaCl, 0.025% BSA) and the dilute cell lysate was used as an enzyme solution of human liver glycogen phosphorylase. As a substrate solution, 25 mM Tris-HCl buffer (pH 7.2, containing 250 mM KCl, 6.25 mM MgCl2, 6.25 mM EGTA, 1.25 mM glucose-1-phosphate, 2.5 mg/ml glycogen, 7.5 mM glucose) was used. The test drug was dissolved in 0.5% dimethyl sulfoxide (DMSO). To a mixture of the test drug (10 μl) and the substrate solution (20 μl) was added an enzyme solution (20 μl) to start the enzyme reaction. As a control, 0.5% DMSO was added instead of the test drug. One free of addition of enzyme was used as a blank. The mixture was reacted at room temperature for 60 min, and a malachite green solution (50 μl) was added. The mixture was further reacted at room temperature for 20 min and absorbance at 650 nm was measured. An enzyme solution was added to the blank simultaneously with the malachite green solution and the measurement was done in the same manner. The percent inhibition (%) of the test drug was calculated from ((value of control−value of the test drug)/(value of control−value of blank))×100 (%).

| IC50 | SMILES |
| --- | --- |
| 210 nM | Cc1ccc2[nH]c(C(=O)Nn3c(=O)[nH]c4cc(F)c(F)cc4c3=O)cc2c1 [Example 2-26, 5-methyl-1H-indole-2-carboxylic acid (6,7-difluoro-1,2,3,4-tetrahydro-2,4-dioxoquinazolin-3-yl)amide] |
| 290 nM | O=C(NNC(=O)C1(c2ccccc2)CC1)c1cc2cc(Cl)ccc2[nH]1 [Example 5-12, 5-chloro-1H-indole-2-carboxylic acid 2-((1-phenylcyclopropane)carbonyl)hydrazide] |
| 520 nM | O=C(NN1C(=O)CCN(c2cccc(Cl)c2)C1=O)c1cc2cc(Cl)ccc2[nH]1 [Example 3-11, 5-chloro-1H-indole-2-carboxylic acid (1-(3-chlorophenyl)-2,4-dioxoperhydropyrimidin-3-yl)amide] |
| 91 nM | O=C(Nn1c(=O)[nH]c2cc(Cl)ccc2c1=O)c1cc2cc(Cl)ccc2[nH]1 [Example 2-19, 5-chloro-1H-indole-2-carboxylic acid (7-chloro-1,2,3,4-tetrahydro-2,4-dioxoquinazolin-3-yl)amide] |
| > 100 nM | O=C(NNC(=O)c1cc2cc(Cl)ccc2[nH]1)Nc1ccc(Cl)cc1 [Example 5-11, 5-chloro-1H-indole-2-carboxylic acid 2-((4-chloroanilino)carbonyl)hydrazide] |
| > 100 nM | CC(C)c1ccc2[nH]c(C(=O)Nn3c(=O)[nH]c4cc(F)ccc4c3=O)cc2c1 [Example 2-10, 5-isopropyl-1H-indole-2-carboxylic acid (7-fluoro-1,2,3,4-tetrahydro-2,4-dioxoquinazolin-3-yl)amide] |
| 26 nM | Cn1c(=O)n(NC(=O)c2cc3cc(Cl)ccc3[nH]2)c(=O)c2ccccc21 [Example 2-31, 5-chloro-1H-indole-2-carboxylic acid (1,2,3,4-tetrahydro-1-methyl-2,4-dioxoquinazolin-3-yl)amide] |
| 56 nM | Cc1ccc2[nH]c(C(=O)Nn3c(=O)[nH]c4ccc(O)cc4c3=O)cc2c1 [Example 2-28, 5-methyl-1H-indole-2-carboxylic acid (1,2,3,4-tetrahydro-6-hydroxy-2,4-dioxoquinazolin-3-yl)amide] |
| 190 nM | O=C(NN1C(=O)CCN(c2ccc(F)cc2)C1=O)c1cc2cc(Cl)ccc2[nH]1 [Example 3-5, 5-chloro-1H-indole-2-carboxylic acid (1-(4-fluorophenyl)-2,4-dioxoperhydropyrimidin-3-yl)amide] |
| 440 nM | Cc1ccc(N2CCC(=O)N(NC(=O)c3cc4cc(Cl)ccc4[nH]3)C2=O)cc1 [Example 3-13, 5-chloro-1H-indole-2-carboxylic acid (2,4-dioxo-1-(p-tolyl)perhydropyrimidin-3-yl)amide] |
| > 100 nM | O=C(NN1CCN(c2ccccc2)C1=O)c1cc2cc(Cl)ccc2[nH]1 [Example 4-5, N-(2-oxo-1-phenylimidazolidin-3-yl)-5-chloro-1H-indole-2-carboxamide] |
| 75 nM | O=C(NN1C(=O)N[C@@H](c2ccc(O)cc2)C1=O)c1cc2cc(Cl)ccc2[nH]1 [Example 4-18, 5-chloro-1H-indole-2-carboxylic acid ((4S)-2,5-dioxo-4-(4-hydroxyphenyl)imidazolidin-1-yl)amide] |
| 78 nM | O=C(NN1C(=O)CCN(c2ccccc2)C1=O)c1cc2cc(Cl)ccc2[nH]1 [Example 3-3, N-(2,4-dioxo-1-phenyl-perhydropyrimidin-3-yl)-5-chloro-1H-indole-2-carboxamide] |

Second part, the compound before the results:

| SMILES | IC50 |
| --- | --- |
| O=C(NNC(=O)C1CCCCC1)c1cc2cc(Cl)ccc2[nH]1 [Example 1-23, cyclohexanecarboxylic acid 2-(5-chloro-1H-indole-2-carbonyl)hydrazide] | 75 nM |
| O=C(NNC(=O)c1cc2cc(Cl)ccc2[nH]1)c1ccc([N+](=O)[O-])cc1 [Example 1-12, 4-nitrobenzoic acid 2-(5-chloro-1H-indole-2-carbonyl)hydrazide] | 790 nM |
| O=C(NNC(=O)c1cc2cc(Cl)ccc2[nH]1)c1ccccc1 [Example 1, benzoic acid 2-(5-chloro-1H-indole-2-carbonyl)hydrazide] | 38 nM |
| Cc1ccc(C(=O)NNC(=O)c2cc3cc(Cl)ccc3[nH]2)cc1 [Example 1-14, 4-methylbenzoic acid 2-(5-chloro-1H-indole-2-carbonyl)hydrazide] | 130 nM |
| O=C(NNC(=O)c1cc2cc(Cl)ccc2[nH]1)c1cnccn1 [Example 1-82, pyrazine-2-carboxylic acid 2-(5-chloro-1H-indole-2-carbonyl)hydrazide] | 360 nM |
| O=C(Nc1ccccc1C(=O)NNC(=O)c1cc2cc(Cl)ccc2[nH]1)OCc1ccccc1 [Example 1-110, benzyl (2-(2-(5-chloro-1H-indole-2-carbonyl)hydrazinocarbonyl)phenyl)carbamate] | 35 nM |
| CC(C)c1ccc2[nH]c(C(=O)NNC(=O)c3ccccc3N)cc2c1 [Example 1-36, 2-aminobenzoic acid 2-(5-isopropyl-1H-indole-2-carbonyl)hydrazide] | > 100 nM |
| Cc1ccsc1C(=O)NNC(=O)c1cc2cc(Cl)ccc2[nH]1 [Example 1-89, 3-methylthiophene-2-carboxylic acid 2-(5-chloro-1H-indole-2-carbonyl)hydrazide] | 450 nM |
| Cc1cccc(C(=O)NNC(=O)c2cc3cc(Cl)ccc3[nH]2)c1N [Example 1-99, 2-amino-3-methylbenzoic acid 2-(5-chloro-1H-indole-2-carbonyl)hydrazide] | 10 nM |
| Cc1ccc2[nH]c(C(=O)NNC(=O)c3ccccc3N)cc2c1 [Example 1-62, 2-aminobenzoic acid 2-(5-methyl-1H-indole-2-carbonyl)hydrazide] | 88 nM |
| COc1cccc(C(=O)NNC(=O)c2cc3cc(Cl)ccc3[nH]2)c1 [Example 1-16, 3-methoxybenzoic acid 2-(5-chloro-1H-indole-2-carbonyl)hydrazide] | 73 nM |
| O=C(NNC(=O)c1cc(F)c(F)c(F)c1F)c1cc2cc(Cl)ccc2[nH]1 [Example 1-94, 2,3,4,5-tetrafluorobenzoic acid 2-(5-chloro-1H-indole-2-carbonyl)hydrazide] | 520 nM |
| Cn1cccc1C(=O)NNC(=O)c1cc2cc(Cl)ccc2[nH]1 [Example 1-87, 1-methyl-1H-pyrrole-2-carboxylic acid 2-(5-chloro-1H-indole-2-carbonyl)hydrazide] | 56 nM |
| Nc1cc(F)c(F)cc1C(=O)NNC(=O)c1cc2cc(Cl)ccc2[nH]1 [Example 1-100, 2-amino-4,5-difluorobenzoic acid 2-(5-chloro-1H-indole-2-carbonyl)hydrazide] | 240 nM |
| Cc1nc(C(=O)NNC(=O)c2cc3cc(Cl)ccc3[nH]2)c(N)s1 [Example 1-143, 5-amino-2-methylthiazole-4-carboxylic acid 2-(5-chloro-1H-indole-2-carbonyl)hydrazide] | 120 nM |
| N=C(NNC(=O)c1cc2cc(Cl)ccc2[nH]1)c1cccc(F)c1 [Example 1-127, 5-chloro-1H-indole-2-carboxylic acid 2-((3-fluorophenyl)-imino-methyl)hydrazide] | 84 nM |
| CC(=O)Nc1cccc(C(=O)NNC(=O)c2cc3cc(Cl)ccc3[nH]2)c1 [Example 1-46, N-(3-(2-(5-chloro-1H-indole-2-carbonyl)hydrazinocarbonyl)phenyl)acetamide] | 290 nM |
| O=C(NNC(=O)c1ccc(Cl)s1)c1cc2cc(Cl)ccc2[nH]1 [Example 1-85, 5-chlorothiophene-2-carboxylic acid 2-(5-chloro-1H-indole-2-carbonyl)hydrazide] | 430 nM |
| O=C(NNC(=O)c1ccccc1O)c1cc2cc(Cl)ccc2[nH]1 [Example 1-3, 2-hydroxybenzoic acid 2-(5-chloro-1H-indole-2-carbonyl)hydrazide] | 37 nM |

Reference: US20050054696A1, “Indole compounds and medicinal use thereof” (priority 2001, published 2005)
